Results published in PubChem BioAssay AID1259407 (Chemical Carcinogenesis Research Information System (CCRIS), 2018).
Active and inactive are the calls of the source. How the calls were made is not given here.

Test system: CCRIS mutagenicity, Ames/micronucleus/aberration tests
Test: CCRIS mutagenicity studies
[1] = Test System: AMES SALMONELLA TYPHIMURIUM, Strain/Indicator: TA100, Metabolic Activation: NONE, Method: STANDARD PLATE
[2] = Test System: AMES SALMONELLA TYPHIMURIUM, Strain/Indicator: TA98, Metabolic Activation: NONE, Method: PREINCUBATION
[3] = Test System: AMES SALMONELLA TYPHIMURIUM, Strain/Indicator: TA100, Metabolic Activation: NONE, Method: PREINCUBATION
[4] = Test System: AMES SALMONELLA TYPHIMURIUM, Strain/Indicator: TA1535, Metabolic Activation: NONE, Method: PREINCUBATION
[5] = Test System: AMES SALMONELLA TYPHIMURIUM, Strain/Indicator: TA1537, Metabolic Activation: NONE, Method: PREINCUBATION

Nc1ccc(S(N)(=O)=O)cc1
mutagenic call (End Point: IN VITRO CHROMOSOMAL ABERRATIONS, Test System: CHINESE HAMSTER OVARY CELLS, Metabolic Activation: NONE): inactive; negative | mutagenic call (End Point: IN VITRO CHROMOSOMAL ABERRATIONS, Test System: CHINESE HAMSTER OVARY CELLS, Metabolic Activation: RAT, LIVER, S-9, AROCLOR 1254): inactive; negative | mutagenic call (Test System: AMES SALMONELLA TYPHIMURIUM, Strain/Indicator: TA98, Metabolic Activation: HAMSTER, LIVER, S-9, AROCLOR 1254, Method: STANDARD PLATE): inactive; negative | mutagenic call (Test System: AMES SALMONELLA TYPHIMURIUM, Strain/Indicator: TA98, Metabolic Activation: NONE, Method: STANDARD PLATE): inactive; negative | mutagenic call (Test System: AMES SALMONELLA TYPHIMURIUM, Strain/Indicator: TA98, Metabolic Activation: RAT, LIVER, S-9, AROCLOR 1254, Method: STANDARD PLATE): inactive; negative | mutagenic call (Test System: AMES SALMONELLA TYPHIMURIUM, Strain/Indicator: TA100, Metabolic Activation: HAMSTER, LIVER, S-9, AROCLOR 1254, Method: STANDARD PLATE): inactive; negative | mutagenic call [1]: inactive; negative | mutagenic call (Test System: AMES SALMONELLA TYPHIMURIUM, Strain/Indicator: TA100, Metabolic Activation: RAT, LIVER, S-9, AROCLOR 1254, Method: STANDARD PLATE): inactive; negative | mutagenic call (Test System: AMES SALMONELLA TYPHIMURIUM, Strain/Indicator: TA1535, Metabolic Activation: HAMSTER, LIVER, S-9, AROCLOR 1254, Method: STANDARD PLATE): inactive; negative | mutagenic call (Test System: AMES SALMONELLA TYPHIMURIUM, Strain/Indicator: TA1535, Metabolic Activation: NONE, Method: STANDARD PLATE): inactive; negative | mutagenic call (Test System: AMES SALMONELLA TYPHIMURIUM, Strain/Indicator: TA1535, Metabolic Activation: RAT, LIVER, S-9, AROCLOR 1254, Method: STANDARD PLATE): inactive; negative | mutagenic call (Test System: AMES SALMONELLA TYPHIMURIUM, Strain/Indicator: TA1537, Metabolic Activation: HAMSTER, LIVER, S-9, AROCLOR 1254, Method: STANDARD PLATE): inactive; negative | mutagenic call (Test System: AMES SALMONELLA TYPHIMURIUM, Strain/Indicator: TA1537, Metabolic Activation: NONE, Method: STANDARD PLATE): inactive; negative | mutagenic call (Test System: AMES SALMONELLA TYPHIMURIUM, Strain/Indicator: TA1537, Metabolic Activation: RAT, LIVER, S-9, AROCLOR 1254, Method: STANDARD PLATE): inactive; negative | mutagenic call (Test System: AMES SALMONELLA TYPHIMURIUM, Strain/Indicator: TA1538, Metabolic Activation: HAMSTER, LIVER, S-9, AROCLOR 1254, Method: STANDARD PLATE): inactive; negative | mutagenic call (Test System: AMES SALMONELLA TYPHIMURIUM, Strain/Indicator: TA1538, Metabolic Activation: NONE, Method: STANDARD PLATE): inactive; negative | mutagenic call (Test System: AMES SALMONELLA TYPHIMURIUM, Strain/Indicator: TA1538, Metabolic Activation: RAT, LIVER, S-9, AROCLOR 1254, Method: STANDARD PLATE): inactive; negative | mutagenic call (Test System: MOUSE LYMPHOMA, Strain/Indicator: L5178Y (TK+/TK-), Metabolic Activation: NONE, Method: SUSPENSION/PLATE): inactive; negative | mutagenic call (Test System: MOUSE LYMPHOMA, Strain/Indicator: L5178Y (TK+/TK-), Metabolic Activation: RAT, LIVER, S-9, AROCLOR 1254, Method: SUSPENSION/PLATE): inactive; negative | mutagenic call (Test System: Mouse lymphoma, Strain/Indicator: L5178Y (tk+/tk-), Metabolic Activation: None, Method: Suspension/plate): inactive; negative | mutagenic call (Test System: Mouse lymphoma, Strain/Indicator: L5178Y (tk+/tk-), Metabolic Activation: Rat, Liver, S-9, Aroclor 1254, Method: Suspension/plate): inactive; negative

Cc1c2cc(CO)ccc2nc2c1c1c(c3ccccc32)O1
mutagenic call [1]: inactive; negative

Nc1ccc(Sc2ccc(N)cc2)cc1
mutagenic call (Test System: AMES SALMONELLA TYPHIMURIUM, Strain/Indicator: TA97, Metabolic Activation: HAMSTER, LIVER, S-9, AROCLOR 1254 (10%), Method: PREINCUBATION): active; positive | mutagenic call (Test System: AMES SALMONELLA TYPHIMURIUM, Strain/Indicator: TA97, Metabolic Activation: NONE, Method: PREINCUBATION): inactive; negative | mutagenic call (Test System: AMES SALMONELLA TYPHIMURIUM, Strain/Indicator: TA97, Metabolic Activation: RAT, LIVER, S-9, AROCLOR 1254 (10%), Method: PREINCUBATION): active; positive | mutagenic call (Test System: AMES SALMONELLA TYPHIMURIUM, Strain/Indicator: TA98, Metabolic Activation: HAMSTER, LIVER, S-9, AROCLOR 1254 (10%), Method: PREINCUBATION): active; positive | mutagenic call [2]: inactive; negative | mutagenic call (Test System: AMES SALMONELLA TYPHIMURIUM, Strain/Indicator: TA98, Metabolic Activation: RAT, LIVER, S-9, AROCLOR 1254 (10%), Method: PREINCUBATION): active; positive | mutagenic call (Test System: AMES SALMONELLA TYPHIMURIUM, Strain/Indicator: TA98, Metabolic Activation: RAT, LIVER, S-9, PCB, Method: PREINCUBATION): active; positive | mutagenic call (Test System: AMES SALMONELLA TYPHIMURIUM, Strain/Indicator: TA100, Metabolic Activation: HAMSTER, LIVER, S-9, AROCLOR 1254 (10%), Method: PREINCUBATION): active; positive | mutagenic call [3]: active; positive | mutagenic call (Test System: AMES SALMONELLA TYPHIMURIUM, Strain/Indicator: TA100, Metabolic Activation: RAT, LIVER, S-9, AROCLOR 1254 (10%), Method: PREINCUBATION): active; positive | mutagenic call (Test System: AMES SALMONELLA TYPHIMURIUM, Strain/Indicator: TA100, Metabolic Activation: RAT, LIVER, S-9, PCB, Method: PREINCUBATION): active; positive | mutagenic call (Test System: AMES SALMONELLA TYPHIMURIUM, Strain/Indicator: TA1535, Metabolic Activation: HAMSTER, LIVER, S-9, AROCLOR 1254 (10%), Method: PREINCUBATION): inactive; negative | mutagenic call [4]: inactive; negative | mutagenic call (Test System: AMES SALMONELLA TYPHIMURIUM, Strain/Indicator: TA1535, Metabolic Activation: RAT, LIVER, S-9, AROCLOR 1254 (10%), Method: PREINCUBATION): inactive; negative | mutagenic call (Test System: AMES SALMONELLA TYPHIMURIUM, Strain/Indicator: TA1537, Metabolic Activation: HAMSTER, LIVER, S-9, AROCLOR 1254 (10%), Method: PREINCUBATION): inactive; negative | mutagenic call [5]: inactive; negative | mutagenic call (Test System: AMES SALMONELLA TYPHIMURIUM, Strain/Indicator: TA1537, Metabolic Activation: RAT, LIVER, S-9, AROCLOR 1254 (10%), Method: PREINCUBATION): inactive; negative

Cc1ccccc1S(N)(=O)=O
mutagenic call [2]: inactive; negative | mutagenic call (Test System: AMES SALMONELLA TYPHIMURIUM, Strain/Indicator: TA98, Metabolic Activation: RAT LIVER S-9, PHENOBARBITAL AND BETA-NAPHTHOFLAVONE, Method: PREINCUBATION): inactive; negative | mutagenic call [3]: inactive; negative | mutagenic call (Test System: AMES SALMONELLA TYPHIMURIUM, Strain/Indicator: TA100, Metabolic Activation: RAT LIVER S-9, PHENOBARBITAL AND BETA-NAPHTHOFLAVONE, Method: PREINCUBATION): inactive; negative | mutagenic call [4]: inactive; negative | mutagenic call (Test System: AMES SALMONELLA TYPHIMURIUM, Strain/Indicator: TA1535, Metabolic Activation: RAT LIVER S-9, PHENOBARBITAL AND BETA-NAPHTHOFLAVONE, Method: PREINCUBATION): inactive; negative | mutagenic call [5]: inactive; negative | mutagenic call (Test System: AMES SALMONELLA TYPHIMURIUM, Strain/Indicator: TA1537, Metabolic Activation: RAT LIVER S-9, PHENOBARBITAL AND BETA-NAPHTHOFLAVONE, Method: PREINCUBATION): inactive; negative | mutagenic call (Test System: AMES SALMONELLA TYPHIMURIUM, Strain/Indicator: TA1538, Metabolic Activation: NONE, Method: PREINCUBATION): inactive; negative | mutagenic call (Test System: AMES SALMONELLA TYPHIMURIUM, Strain/Indicator: TA1538, Metabolic Activation: RAT LIVER S-9, PHENOBARBITAL AND BETA-NAPHTHOFLAVONE, Method: PREINCUBATION): inactive; negative | mutagenic call (Test System: E.COLI, Strain/Indicator: WP2UVRA/PKM101, Metabolic Activation: NONE, Method: PREINCUBATION): inactive; negative | mutagenic call (Test System: E.COLI, Strain/Indicator: WP2UVRA/PKM101, Metabolic Activation: RAT LIVER S-9, PHENOBARBITAL AND BETA-NAPHTHOFLAVONE, Method: PREINCUBATION): inactive; negative | mutagenic call (Test System: E.COLI, Strain/Indicator: WP2UVRA, Metabolic Activation: NONE, Method: PREINCUBATION): inactive; negative | mutagenic call (Test System: E.COLI, Strain/Indicator: WP2UVRA, Metabolic Activation: RAT LIVER S-9, PHENOBARBITAL AND BETA-NAPHTHOFLAVONE, Method: PREINCUBATION): inactive; negative

Nc1c([N+](=O)[O-])cccc1[N+](=O)[O-]
mutagenic call [2]: active; positive | mutagenic call (Test System: AMES SALMONELLA TYPHIMURIUM, Strain/Indicator: TA98, Metabolic Activation: RAT, LIVER, S-9, KANECHLOR 500, Method: PREINCUBATION): active; positive | mutagenic call [3]: active; positive | mutagenic call (Test System: AMES SALMONELLA TYPHIMURIUM, Strain/Indicator: TA100, Metabolic Activation: RAT, LIVER, S-9, KANECHLOR 500, Method: PREINCUBATION): active; positive
